These results are taken from PMC9654711, “Neuroprotective Action of Coumarin Derivatives through Activation of TRKB-CREB-BDNF Pathway and Reduction of Caspase Activity in Neuronal Cells Expressing Pro-Aggregated Tau Protein” (International Journal of Molecular Sciences, 2022).

Series [1] has as its target T1, TRKB-ECD-His (extracellular domain of TRKB) (Homo sapiens, UniProt Q16620).
T1 construct: extracellular domain of TRKB (TRKB-ECD) (residues 32–429, XP_016870240); Saccharomyces cerevisiae α-factor secretion signal (N, cleaved yes); made in house; host or cells: Pichia pastoris
As to the kind of experiment: Tryptophan fluorescence quenching assay. The following applies: TRKB-ECD-His 50 nM in PBS; excitation 295 nm, emission 330 nm; compounds 0–1000 nM; read-out: TRKB-ECD binding affinity (KD). From the text:
The cDNA fragment containing the full-length extracellular domain of TRKB (TRKB-ECD) (residues 32–429, XP_016870240) was amplified from pDONR223-NTRK2 plasmid (Addgene, Watertown, MA, USA) using forward primer 5′-ctcgagaaaagagaggctgaagctTGTCCCACGTCCTGAAATG (XhoI site and Kex2 cleavage of the signal sequence in lowercase letters) and reverse primer 5′-gtcgac[…] (SalI site in lowercase letters). After cloning and sequencing, the TRKB-ECD fragment was excised with XhoI and SalI and subcloned into Pichia expression vector pGAPZα A (Invitrogen). The AvrII-linearized plasmid was then transformed into Pichia pastoris, and stable transformants selected and cultured at 30 °C for 4 days for constitutive expression of recombinant His-tagged TRKB-ECD. The secreted TRKB-ECD-His in cultured medium was purified using Ni-NTA His•Bind resins (Novagen, Madison, WI 53719, USA) according to the supplier’s instructions. Protein purity was examined by Coomassie blue staining of SDS-polyacrylamide gel as well as immunoblotting using anti-His (1:2000; Acris, Herford, Germany) and anti-TRKB (1:1000; Cell Signaling) antibodies.
The interaction between TRKB-ECD-His and LM-031, LMDS-1 or LMDS-2 was determined by tryptophan fluorescence titration. 7,8-DHF (Sigma-Aldrich) was included as a positive control. Tryptophan fluorescence spectra of TRKB-ECD-His (50 nM in PBS) were obtained before and after titration with different concentrations of test compounds (0–1000 nM). The fluorescent quenching was conducted in a cuvette with a 1 cm path length cell by an F-7000 fluorescence spectrophotometer (Hitachi, Tokyo, Japan) at room temperature. The intrinsic fluorescence spectra of TRKB were recorded with excitation wavelength set at 295 nm and emission wavelength in the range 300–400 nm. The dissociation constant (KD) of 7,8-DHF, LM-031, LMDS-1 and LMDS-2 to TRKB was determined by fitting the normalized fluorescence intensity at 330 nm under different concentrations of test compounds using the equation derived from Liu et al.:KD = [P]T (f − 1) + [D]T (1/f − 1), where f is the fractional change, and [P]Tand [D]Tare the total concentration of TRKB-ECD-His protein and test compound, respectively.

The nature of series [2]: High-content analysis of ΔK280 tauRD-DsRed fluorescence and cell number (folding reporter). In kind it is cell-based, human. The following applies: human; induced ΔK280 tauRD-DsRed SH-SY5Y; compounds 2.5–10 µM; read-out: IC50 cytotoxicity based on the cell number analyzed. Here is the method:
(§1) On day 1, ∆K280 tauRD-DsRed SH-SY5Y cells were seeded in a 96-well plate (3 × 10^4/well), with retinoic acid (10 µM; Sigma-Aldrich) added to induce neuronal differentiation. […] […] For ROS measurement, dichloro-dihydro-fluorescein diacetate (DCFH-DA, 10 µM; Invitrogen, Carlsbad, CA, USA) was added to the cells on day 8 and incubated at 37 °C for 30 min.

The subject of series [3] is ΔK280 tauRD-DsRed SH-SY5Y cells. As to the kind of experiment: High-content analysis of neurite outgrowth. In kind it is cell-based, human. The following applies: 10 µM. The procedure:
As described, ∆K280 tauRD-DsRed SH-SY5Y cells were seeded in a 24-well plate (5 × 10^4/well) with retinoic acid addition on day 1, treated with tested compounds (10 µM) and ∆K280 tauRD-DsRed expression was induced with doxycycline (2 μg/mL) on day 2. On day 8, after being fixed in 4% paraformaldehyde for 15 min, permeabilized in 0.1% Triton X-100 for 10 min and blocked in 3% bovine serum albumin (BSA) for 20 min, the cells were stained with TUBB3 (neuronal class III β-tubulin) primary antibody (1:1000; BioLegend, San Diego, CA, USA) at 4 °C overnight, followed by goat anti-rabbit Alexa Fluor® 555 secondary antibody (1:1000; Molecular probes) at room temperature for 2 h, with 4′-6-diamidino-2-phenylindole (DAPI, 0.1 µg/mL; Sigma-Aldrich) included for nuclei staining. Neuronal images were captured using the high-content analysis system as described. Neurite total length (μm), processes (primary neurite extensions projecting directly from the cell body) and branching (points at which primary neurites bifurcated) were analyzed using Neurite Outgrowth Application Module (MetaXpress; Molecular Devices). Around 5000 cells were analyzed in each of three independent experiments for each sample.

Series [4] is described as follows: DPPH free radical-scavenging assay. The following applies: compounds tested 10–80 μM; DPPH 100 µM; linear interpolation. Here is the method: The potential free radical-scavenging activity of test compounds was assayed using stable free radical 1,1-diphenyl-2-picrylhydrazyl (DPPH) (Sigma-Aldrich). Briefly, kaempferol, LM-031 or LMDS-1 to -4 (10–80 µM) was added to DPPH (100 µM in 99% ethanol). The solution was vortexed for 15 s, left for 30 min at room temperature, the mixture was transferred to a 96-well UV-transparent microplate and the absorbance at 517 nm was measured using a Multiskan^TM GO microplate spectrophotometer (Thermo Fisher Scientific, Waltham, MA, USA). Radical-scavenging activity was calculated using the equation: 1 − (absorbance of sample/absorbance of control) × 100%, and EC50 estimated using the linear interpolation method.
On the technique in general: The DPPH test is a chemical assay of radical scavenging.

The target in series [5] is T2, E. coli-expressed ΔK280 tauRD protein (Homo sapiens, UniProt P10636, DEL597-597).
T2 construct: assessed by using E. coli-expressed ΔK280 tauRD protein; made in house; host or cells: E. coli
T2 sequence (P10636 with tags, fused parts or gaps DEL597-597): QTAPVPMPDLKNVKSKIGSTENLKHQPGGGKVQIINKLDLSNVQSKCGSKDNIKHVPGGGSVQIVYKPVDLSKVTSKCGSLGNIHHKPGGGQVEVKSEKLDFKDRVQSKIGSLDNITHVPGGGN
In words: Anti-ΔK280 tauRD aggregation assay (thioflavin T). Format: biochemical. The following applies: compounds tested 1–10 μM, 20 μM protein, 48 h, linear interpolation, read-out: EC50 for ΔK280 tauRD aggregation inhibition. The procedure: Thioflavin T is widely used to visualize and quantify the presence of misfolded amyloid protein aggregates in vitro [74]. The tau aggregation inhibiting potential of Congo red, LM-031 and LMDS-1 to -4 was assessed by using E. coli-expressed ΔK280 tauRD protein [28]. Briefly, purified ΔK280 tauRD protein (20 μM) was incubated with Congo red or coumarin compounds (1–10 μM) in 150 mM NaCl and 20 mM Tris-HCl pH8.0, at 37 °C with shaking for 48 h to form aggregates. Then, thioflavin T (final 5 μM; Acros Organics, Geel, Belgium) was added and incubated for 25 min at room temperature. Fluorescence intensity of samples was recorded at excitation/emission wavelengths of 420/485 nm using an FLx800 microplate reader (BioTek, Winooski, VT, USA). The half maximal effective concentration (EC50) values were calculated by using a linear interpolation method.

A short description of series [6]: Oxygen radical antioxidant capacity (ORAC) assay. The following applies: compound at 100 μM. The procedure:
In addition, an oxygen radical antioxidant capacity (ORAC) assay was performed using an OxiSelect™ kit according to the manufacturer’s instruction (Cell Biolabs, San Diego, CA, USA). Briefly, Trolox standards (2.5–50 μM) and samples (4–100 μM) were diluted with 50% acetone. Blank (50% acetone), standards and samples were mixed with fluorescein and incubated at 37 °C for 30 min. Following the free radical initiator 2,2′-azobis(2-methylpropionamidine) dihydrochloride (AAPH), the produced peroxyl radicals (ROO•) quench the fluorescent probe over time. Antioxidants present in the assay block the peroxyl radical oxidation of the fluorescent probe. The course of the reaction was recorded for 60 min, with one measurement every five minutes using a BioTek FLx800 microplate reader. The excitation and emission wavelengths were set at 480 nm and 520 nm, respectively. To quantify the oxygen radical antioxidant activity in a sample, the area under the curve (AUC) for blank, standard and samples was calculated. After subtraction of the blank, the equivalent Trolox concentrations of samples were expressed based on the Trolox standard curve.

For series [7], the system named is ΔK280 tauRD-DsRed SH-SY5Y folding reporter cells. In words: High-content analysis of ΔK280 tauRD-DsRed fluorescence and cell number (folding reporter). In kind it is cell-based, human. The following applies: BDNF at 100 ng/mL, LMDS-1/2 at 10 μM; untreated = 100%; Figure 6A. The procedure:
as §1

A further series deals with p-TRKB (Y516 and Y817). In words: Immunoblot of p-TRKB (Y516 and Y817). Format: cell-based, human. The following applies: BDNF 100 ng/mL, LMDS-1/2 10 μM; induced untreated 77–83%; Figure 6B. Here is the method: (§2) ∆K280 tauRD-DsRed SH-SY5Y cells in 6-well plates (5 × 10^5/well) were treated with retinoic acid (10 µM) on day 1, followed by LMDS-1 or -2 (10 µM) and doxycycline (2 µg/mL) addition on day 2 as described. ERK inhibitor U0126 or PI3K inhibitor wortmannin (10 μM) (LC Laboratories, Woburn, MA, USA) was added on day 6. On day 8, the cells were collected for BDNF, BCL2, BAX and total/phosphorylated TRKB, ERK, AKT, CREB protein analyses as described.
(§3) ∆K280 tauRD-DsRed SH-SY5Y cells were lysed in buffer containing 50 mM Tris-HCl (pH 8.0), 150 mM NaCl, 1 mM EDTA (pH 8.0), 1 mM EGTA (pH 8.0), 0.1% SDS, 0.5% sodium deoxycholate, 1% Triton X-100 and protease (Sigma-Aldrich)/phosphatase (Roche, Basel, Switzerland) inhibitor cocktails. After two sonications with an interval of 30 min on ice, cell lysates were collected by centrifugation at 14,000× g for 30 min at 4 °C. Protein concentrations were determined using a Bradford assay (Bio-Rad, Hercules, CA, USA). Protein samples (25 µg) were separated by 10–12% SDS-PAGE and transferred to polyvinylidene difluoride (PVDF) membranes (Sigma-Aldrich). After blocking for 2 h with 10% skimmed milk or 5% BSA in 0.1% Tween 20 in Tris-buffered saline (TBST), the membrane was incubated with primary antibody against BDNF (1:500; Santa Cruz, Santa Cruz, CA, USA), BCL2 (1:500; BioVision), BAX (1:500; BioVision), TRKB (1:1000; Cell Signaling, Danvers, MA, USA), p-TRKB (Y516) (1:1000; Cell Signaling), p-TRKB (Y817) (1:1000; Millipore, Billerica, MA, USA), ERK (1:1000; Cell Signaling), p-ERK (T202/Y204) (1:500; Cell Signaling), AKT (1:1000; Cell Signaling), p-AKT (S473) (1:1000; Cell Signaling), CREB (1:1000; Santa Cruz), p-CREB (S133) (1:1000; Millipore), JNK (1:1000; Cell Signaling), p-JNK (T183/Y185) (1:1000; Cell Signaling) or loading control glyceraldehyde-3-phosphate dehydrogenase (GAPDH) (1:1000; MDBio, Taipei, Taiwan). After three washes with TBST, the immune complexes were detected using horseradish peroxidase-conjugated goat anti-mouse or goat anti-rabbit secondary IgG antibody (1:5000, GeneTex, Irvine, CA, USA) and enhanced chemiluminescence substrates luminol and peroxide (Millipore). The primary and secondary antibodies used were diluted with TBST. The chemiluminescent detection was performed on ImageQuant™ LAS 4000mini (GE Healthcare).

Another series has as its system p-CREB (S133). As to the kind of experiment: Immunoblot of p-CREB (S133). In kind it is cell-based, human. The following applies: BDNF 100 ng/mL, LMDS-1/2 10 μM; induced untreated 72%; Figure 6B. Here is the method: as §2, §3
(In general: A western blot detects proteins with antibodies after separation by electrophoresis.)

By Kd is commonly meant the equilibrium constant for the complex coming apart. In general, IC50 refers to the midpoint of a concentration-inhibition curve. By EC50 is commonly meant the concentration giving half of the maximal effect.

T1 sequence (Q16620 32-429): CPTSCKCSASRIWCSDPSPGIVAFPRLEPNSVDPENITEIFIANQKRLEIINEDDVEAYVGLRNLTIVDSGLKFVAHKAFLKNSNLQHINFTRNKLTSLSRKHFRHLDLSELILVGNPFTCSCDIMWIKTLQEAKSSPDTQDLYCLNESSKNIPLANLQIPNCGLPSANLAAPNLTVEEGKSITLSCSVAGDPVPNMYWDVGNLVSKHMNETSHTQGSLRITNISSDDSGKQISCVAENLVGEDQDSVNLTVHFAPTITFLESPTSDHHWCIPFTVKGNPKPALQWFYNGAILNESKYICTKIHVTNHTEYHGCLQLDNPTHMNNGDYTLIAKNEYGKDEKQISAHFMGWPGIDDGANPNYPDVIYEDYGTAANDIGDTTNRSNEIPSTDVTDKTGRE

On to `O=c1cc(-c2ccccc2)oc2c(O)c(O)ccc12` [7,8-DHF, 7,8-dihydroxyflavone, reference compound], for which the Kd in series [1] came to 0.016 ± 0.0034 µM.

Regarding `Nc1c(/N=N/c2ccc(-c3ccc(/N=N/c4cc(S(=O)(=O)O)c5ccccc5c4N)cc3)cc2)cc(S(=O)(=O)O)c2ccccc12` [Congo red, reference compound], the half-maximal inhibitory concentration (IC50) at 6 days in series [2] amounted to 45 µM. Moreover, the Neurite branching in series [3] (induced untreated 0.87, uninduced 0.99) was 1.00–1.06. For the same compound, the Neurite length in [3] (induced untreated 27.2 μm, uninduced 30.9 μm) is 30.3–31.5 μm.

On to `O=c1c(O)c(-c2ccc(O)cc2)oc2cc(O)cc(O)c12` [Kaempferol, kaempferol, reference compound], for which the EC50 in series [4] was 28 µM.

With `COc1ccc2cc(C(=O)c3ccccc3)c(=O)oc2c1` [LMDS-3], the concentration giving a half-maximal response (EC50) is 21 µM in series [5] and 132 µM in [4]. For the same compound, in [6], the “Oxygen radical absorbance capacity, activity equivalent to Trolox” value worked out at 12 μM Trolox. For the same compound, in [2], the IC50 at 6 days is 29 µM.

Turning to `CC(=O)Oc1ccc2cc(C(=O)c3ccccc3)c(=O)oc2c1` [LMDS-4], the EC50 in series [5] came to 14 µM; in series [4] it was 126 µM. In series [6], the “Oxygen radical absorbance capacity, activity equivalent to Trolox” value is listed as 16 μM Trolox. In addition, the IC50 at 6 days in [2] was 25 µM.

Regarding BDNF: Brain-derived neurotrophic factor, the DsRed fluorescence intensity in series [7] is 111–112%. Besides, the “p-TRKB (Y516/Y817) level” value with p-TRKB (Y516 and Y817) is on record as 96–104%. Besides, the p-CREB level in the series on p-CREB (S133) was 90–95%.
